Experimental data published in US20120129811A1, “TRICYCLIC INHIBITORS OF PRO-MATRIX METALLOPROTEINASE ACTIVATION” (priority 2010, published 2012).
Structures can show the parent of a compound that is named as a salt.

Assays:
[1] = target: T1, proMMP9(20-445;ΔFnII) (SEQ ID NO:6) (Homo sapiens, UniProt P14780, DEL216-390); test: ThermoFluor binding assay with proMMP9(20-445;ΔFnII)
T1 construct: start methionine (N); made in house; host or cells: E. coli BL21(DE3) RIL
T1 sequence (P14780 with tags, fused parts or gaps DEL216-390): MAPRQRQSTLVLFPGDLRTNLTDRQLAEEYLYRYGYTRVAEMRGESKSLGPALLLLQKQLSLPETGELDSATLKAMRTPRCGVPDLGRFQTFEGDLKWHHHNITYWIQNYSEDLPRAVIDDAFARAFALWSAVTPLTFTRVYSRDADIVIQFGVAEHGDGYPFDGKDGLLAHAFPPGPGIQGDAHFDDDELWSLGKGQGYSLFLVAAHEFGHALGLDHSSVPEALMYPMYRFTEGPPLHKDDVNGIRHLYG
Description: (§1) The ThermoFluor® (TF) assay is a 384-well plate-based binding assay that measures thermal stability of proteins (Biomol Screen 2001, 6, 429-40; Biochemistry 2005, 44, 5258-66). The experiments were carried out using instruments available from Johnson & Johnson Pharmaceutical Research & Development, LLC. TF dye used in all experiments was […] (1,8-ANS) (Invitrogen: A-47).
(§2) Compounds were arranged in a pre-dispensed plate (Greiner Bio-one: 781280), wherein compounds were serially diluted in 100% DMSO across 11 columns within a series. Columns 12 and 24 were used as DMSO reference and contained no compound. For multiple compound concentration-response experiments, the compound aliquots (50 nL) were robotically predispensed directly into black 384-well polypropylene PCR microplates (Abgene: TF-0384/k) using a Cartesian Hummingbird liquid handler (DigiLab, Holliston, Mass.). Following compound dispense, protein and dye solutions were added to achieve the final assay volume of 3 μL. The assay solutions were overlayed with 1 μL of silicone oil (Fluka, type DC 200: 85411) to prevent evaporation.
(§3) Assay plates were robotically loaded onto a thermostatically controlled PCR-type thermal block and then heated from 40 to 90° C. at a ramp-rate of 1° C./min for all experiments. Fluorescence was measured by continuous illumination with UV light (Hamamatsu LC6) supplied via fiber optics and filtered through a band-pass filter (380-400 nm; >60D cutoff). Fluorescence emission of the entire 384-well plate was detected by measuring light intensity using a CCD camera (Sensys, Roper Scientific) filtered to detect 500±25 nm, resulting in simultaneous and independent readings of all 384 wells. A single image with 20-sec exposure time was collected at each temperature, and the sum of the pixel intensity in a given area of the assay plate was recorded vs temperature and fit to standard equations to yield the Tm (J Biomol Screen 2001, 6, 429-40).
(§4) Thermodynamic parameters necessary for fitting compound binding for each proMMP were estimated by differential scanning calorimetry (DSC) and from ThermoFluor® data. The heat capacity of unfolding for each protein was estimated from the molecular weight and from ThermoFluor® dosing data.
ThermoFluor® with proMMP9(20-445; ΔFnII (SEQ ID NO:6)
The protein sample preparations included a desalting buffer exchange step via a PD-10 gravity column (GE Healthcare). The desalting buffer exchange was performed prior to diluting the protein to the final assay concentration of 2.8 μM proMMP9(20-445;ΔFnII) (SEQ ID NO:6). The concentration of proMMP9(20-445;ΔFnII) (SEQ ID NO:6) was determined spectrophotometrically based on a calculated extinction coefficient of ε280=39880 M^−1 cm^−1, a calculated molecular weight of 28.2 kDa, and calculated pI of 5.5. ThermoFluor® reference conditions were define as follows: 80 μg/mL (2.8 μM) proMMP9(20-445;ΔFnII) (SEQ ID NO:6), 50 μM 1,8-ANS, pH 7.0 Buffer (50 mM HEPES pH 7.0, 100 mM NaCl, 0.001% Tween-20, 2.5 mM MgCl2, 300 μM CaCl2). The thermodynamic parameters for proMMP9(20-445;ΔFnII) (SEQ ID NO:6) are as follows: Tm (° C.)=72 (+/−0.1), ΔUH(Tm) (cal mol^−1)=160000(+/−5000), ΔUSTm (cal mol^−1 K^−1)=434, ΔUCp (cal mol^−1 K^−1)=2400.

[2] = target: T2, proMMP9(67-444;ΔFnII) (SEQ ID NO:5) (Homo sapiens, UniProt P14780, DEL216-390); test: ThermoFluor binding assay with proMMP9(67-444;ΔFnII)
T2 construct: start methionine (N); made in house; host or cells: E. coli BL21(DE3) RIL
T2 sequence (P14780 with tags, fused parts or gaps DEL216-390): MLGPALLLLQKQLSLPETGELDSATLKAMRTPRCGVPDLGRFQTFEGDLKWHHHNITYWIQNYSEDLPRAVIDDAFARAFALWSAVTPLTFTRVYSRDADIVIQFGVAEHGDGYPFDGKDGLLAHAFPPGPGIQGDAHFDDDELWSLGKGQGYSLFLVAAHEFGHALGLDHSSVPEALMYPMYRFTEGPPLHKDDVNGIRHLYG
Description: as §1, §2, §3, §4
ThermoFluor® with proMMP9(67-444;ΔFnM (SEQ ID NO:5)
The protein sample preparations had to include a desalting buffer exchange step via a PD-10 gravity column (GE Healthcare). The desalting buffer exchange was performed prior to diluting the protein to the final assay concentration of 3.5 μM proMMP9(67-444;ΔFnII) (SEQ ID NO:5). The concentration of proMMP9(67-444;ΔFnII) (SEQ ID NO:5) was determined spectrophotometrically based on a calculated extinction coefficient of ε280=33900 M^−1 cm^−1, a calculated molecular weight of 22.6 kDa, and calculated pI of 5.20. ThermoFluor® reference conditions were defined as follows: 80 μg/mL (3.5 μM) proMMP9(67-444;ΔFnII) (SEQ ID NO:5), 50 μM 1,8-ANS, pH 7.0 Buffer (50 mM HEPES pH 7.0, 100 mM NaCl, 0.001% Tween-20, 2.5 mM MgCl2, 300 μM CaCl2). The thermodynamic parameters for proMMP9(67-444;ΔFnII) (SEQ ID NO:5) are as follows: Tm (° C.)=63 (+/−0.1), ΔUH(Tm)(cal mol^−1)=105000(+/−5000), ΔUS(Tm) (cal mol^−1 K^−1)=450, ΔUCp (cal mol^−1 K^−1)=2000.

[3] = target: T3, full-length proMMP9(1-707) activation by catalytic MMP3 (Homo sapiens, UniProt P14780, R574P); test: proMMP9/MMP3 P126 Activation Assay; assay type: biochemical
T3 construct: made in house; host or cells: proMMP9: HEK293 (secreted); MMP3: E. coli
Description: proMMP9/MMP3 P126 Activation Assay
The reaction volume was 50 μL. […] Reactivity of residual MMP3 towards P-126 substrate was minimal under these conditions.

T3 sequence (P14780 20-707 R574P): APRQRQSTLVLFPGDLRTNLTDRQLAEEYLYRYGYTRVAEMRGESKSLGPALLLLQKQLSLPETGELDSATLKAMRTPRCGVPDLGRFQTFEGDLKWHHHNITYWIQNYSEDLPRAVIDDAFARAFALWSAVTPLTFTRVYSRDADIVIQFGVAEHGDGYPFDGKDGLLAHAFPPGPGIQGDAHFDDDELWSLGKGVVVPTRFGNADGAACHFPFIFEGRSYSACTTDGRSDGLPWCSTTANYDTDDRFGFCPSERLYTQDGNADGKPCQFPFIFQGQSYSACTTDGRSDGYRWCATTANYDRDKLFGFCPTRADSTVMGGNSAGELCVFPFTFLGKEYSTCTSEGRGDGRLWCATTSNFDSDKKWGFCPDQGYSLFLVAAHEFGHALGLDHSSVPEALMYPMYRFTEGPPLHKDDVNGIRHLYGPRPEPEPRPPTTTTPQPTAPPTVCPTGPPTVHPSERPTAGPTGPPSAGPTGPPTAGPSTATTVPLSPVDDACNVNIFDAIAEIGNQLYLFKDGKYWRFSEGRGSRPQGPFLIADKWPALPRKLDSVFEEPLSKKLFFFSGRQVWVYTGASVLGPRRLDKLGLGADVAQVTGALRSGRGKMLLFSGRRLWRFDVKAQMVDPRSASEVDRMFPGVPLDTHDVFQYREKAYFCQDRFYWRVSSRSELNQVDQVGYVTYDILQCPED

Compound	Kd [1]	Kd [2]	IC50 [3]
CNS(=O)(=O)c1ccc(OC)c(Nc2nc3c(ccc4c3ncn4C)s2)c1 [Example 82, 4-Methoxy-N-methyl-3-(6-methyl-6H-imidazo[4′,5′:3,4]-benzo[2,1-d]thiazol-2-ylamino)-benzenesulfonamide.HCl]	1500 nM	1100 nM	330 nM
Cn1cnc2c3nc(Nc4ccc(C#N)cc4OC(F)(F)F)sc3ccc21 [Example 86, 4-(6-Methyl-6H-imidazo[4′,5′:3,4]benzo[2,1-d]thiazol-2-ylamino)-3-trifluoromethoxy-benzonitrile.HCl]	> 95000 nM	680 nM	650 nM
COc1ccc(NC(N)=O)cc1Nc1nc2c(ccc3c2ncn3C)s1 [Example 87, [4-Methoxy-3-(6-methyl-6H-imidazo[4′,5′:3,4]benzo[2,1-d]thiazol-2-ylamino)-phenyl]-urea.HCl]	6000 nM	1600 nM	650 nM
COc1ccc(F)cc1Nc1nc2c(ccc3c2cnn3C)s1 [Example 93, (5-Fluoro-2-methoxy-phenyl)-(6-methyl-6H-3-thia-1,6,7-triaza-as-indacen-2-yl)-amine.HCl]	19000 nM	8100 nM	180 nM
COc1ccccc1Nc1nc2c(ccc3c2cnn3C)s1 [Example 94, (2-Methoxy-phenyl)-(6-methyl-6H-3-thia-1,6,7-triaza-as-indacen-2-yl)-amine.TFA]	15000 nM	9200 nM	510 nM
COc1ccc(S(C)(=O)=O)cc1Nc1nc2c(ccc3cnccc32)s1 [Example 97, (5-Methanesulfonyl-2-methoxy-phenyl)-thiazolo[4,5-f]isoquinolin-2-yl-amine.TFA]	4400 nM	1000 nM	180 nM
NS(=O)(=O)c1ccc(OC(F)(F)F)c(Nc2nc3c(ccc4cnccc43)s2)c1 [Example 98, 3-(Thiazolo[4,5-f]isoquinolin-2-ylamino)-4-trifluoromethoxy-benzenesulfonamide.TFA]	7600 nM	3000 nM	> 20000 nM
COc1ccc(F)cc1Nc1nc2c(ccc3cnccc32)s1 [Example 99, (5-Fluoro-2-methoxy-phenyl)-thiazolo[4,5-f]isoquinolin-2-yl-amine.TFA]	20000 nM	3200 nM	870 nM
CC(C)Oc1ccc(S(N)(=O)=O)cc1Nc1nc2c(ccc3cnccc32)s1 [Example 105, 4-Isopropoxy-3-(thiazolo[4,5-f]isoquinolin-2-ylamino)-benzenesulfonamide.TFA]	65000 nM	800 nM	850 nM
CCn1cc2c(ccc3sc(Nc4cc(S(C)(=O)=O)ccc4OC)nc32)n1 [Example 107, (7-Ethyl-7H-3-thia-1,6,7-triaza-as-indacen-2-yl)-(5-methanesulfonyl-2-methoxy-phenyl)-amine.TFA]	6800 nM	1500 nM	580 nM
COc1ccc(S(C)(=O)=O)cc1Nc1nc2c(ccc3c2cnn3CC(C)C)s1 [Example 108, (6-Isobutyl-6H-3-thia-1,6,7-triaza-as-indacen-2-yl)-(5-methanesulfonyl-2-methoxy-phenyl)-amine.TFA]	> 95000 nM	1400 nM	650 nM
COc1ccc(S(C)(=O)=O)cc1Nc1nc2c(ccc3c2cnn3CCC(C)C)s1 [Example 109, (5-Methanesulfonyl-2-methoxy-phenyl)-[6-(3-methyl-butyl)-6H-3-thia-1,6,7-triaza-as-indacen-2-yl]-amine.TFA]	> 95000 nM	2300 nM	~2000 nM
COc1ccc(S(C)(=O)=O)cc1Nc1nc2c(ccc3[nH]ncc32)s1 [Example 110, (5-Methanesulfonyl-2-methoxy-phenyl)-(6H-3-thia-1,6,7-triaza-as-indacen-2-yl)-amine.TFA]	> 95000 nM	340 nM	260 nM

These reach a lower Kd [1]. Values come first.

Kd [1]	Kd [2]	IC50 [3]	Compound
580 nM	150 nM	150 nM	COc1ccc(C#N)cc1Nc1nc2c(ccc3c2ccn3C)s1 [Example 85, 4-Methoxy-3-(6-methyl-6H-thiazolo[4,5-e]indol-2-ylamino)-benzonitrile.HCl]
730 nM	440 nM	730 nM	COc1ccc(C(N)=O)cc1Nc1nc2c(ccc3cnccc32)s1 [Example 96, 4-Methoxy-3-(thiazolo[4,5-f]isoquinolin-2-ylamino)-benzamide.TFA]
790 nM	430 nM	760 nM	Cn1ncc2c3nc(Nc4cc(S(N)(=O)=O)ccc4OC(F)(F)F)sc3ccc21 [Example 101, 3-(6-Methyl-6H-3-thia-1,6,7-triaza-as-indacen-2-ylamino)-4-trifluoromethoxy-benzenesulfonamide.TFA]
250 nM	680 nM	390 nM	CC(C)Oc1ccc(S(N)(=O)=O)cc1Nc1nc2c(ccc3c2cnn3C)s1 [Example 102, 4-Isopropoxy-3-(6-methyl-6H-3-thia-1,6,7-triaza-as-indacen-2-ylamino)-benzenesulfonamide.TFA]
750 nM	370 nM	380 nM	COc1ccc(S(N)(=O)=O)cc1Nc1nc2c(ccc3c2cnn3C)s1 [Example 103, 4-Methoxy-3-(6-methyl-6H-3-thia-1,6,7-triaza-as-indacen-2-ylamino)-benzenesulfonamide.TFA]
600 nM	530 nM	190 nM	CCn1ncc2c3nc(Nc4cc(S(C)(=O)=O)ccc4OC)sc3ccc21 [Example 106, (6-Ethyl-6H-3-thia-1,6,7-triaza-as-indacen-2-yl)-(5-methanesulfonyl-2-methoxy-phenyl)-amine.TFA]
